In patent US20250304610A1, “TREHALOSE-BASED SURFACTANTS” (priority 2022, published 2025):

What was measured:
[1] = system: SARS-CoV-2 spike-expressing HEK293 cells; type: cell-based
antibody = assay: Antibody aggregation assessed by DLS after freeze-drying and storage; type: physicochemical; conditions: antibody 1 mg/mL, reconstituted with MilliQ water
Method: 500 uL of 1 mg/mL antibody formulations were placed in a vial prior to deep-freeze in liquid nitrogen. The frozen samples were placed directly in the freeze-dryer. After 24 hr, the lyophilized samples were stored in a fridge at 4° C. for 7 or 28 days. The sample were then reconstituted with addition of MilliQ® water before assessing their stability by DLS and cell binding assays.
The aggregation of antibody was assessed by dynamic light scattering (DLS) operating at 25° C. The measurements were done at different timepoints during storage at […] and right after nebulization.
The mean hydrodynamic diameter by intensities of the monomer was distributed at d=10 nm while aggregates was distributed at a d >10 nm.
The addition of 5.6 mM C16Tre1S and C8Tre1S trehalose surfactants as cryoprotectant was assessed on 1 mg/mL antibody formulations. The samples were first deep-frozen in liquid nitrogen before drying for 24 hr. The lyophilized samples were stored in a fridge for 0, 7 or 28 days before reconstitution with addition of MilliQ® water. The conformation and functionality of antibody after the process were assessed by DLS and cell binding assays respectively. The results were compared to antibody formulated in PBS only and formulated with standard cryoprotectants such as trehalose (5 wt % and 5.6 mM) and Tween 80 (5.6 mM).

Compound	antibody binding to spike-expressing HEK293 cells after lyophilization (fluorescence signal) [1]	antibody aggregation after freeze-drying (DLS) (antibody; excipient 5.6 mM)	antibody aggregation after freeze-drying (DLS) (antibody; excipient 5 wt %)	antibody binding to Spike protein after nebulization of the reconstituted formulation [1]
OC[C@H]1O[C@H](O[C@H]2O[C@H](CO)[C@@H](O)[C@H](O)[C@H]2O)[C@H](O)[C@@H](O)[C@@H]1O [Trehalose]	significant decrease of antibody binding	aggregations were observed	Comparable results	–
CCCCCCCC/C=C\CCCCCCCC(=O)OCCOCC(OCCO)C1OCC(OCCO)C1OCCO (stereo not drawn) [Tween 80]	Comparable results	Comparable results	–	at the same level as before nebulization
